Experimental data published in PubChem BioAssay AID2060490 (Molecular Pharmacology Branch, DTP, NCI, 2025).

Tested on: 885512-296-R-J2-PDC complex spheroid viability
Experiment: Anticancer human tumor 885512-296-R-J2-PDC patient-derived breast carcinoma cell line growth inhibition [GQUAD]
Settings: for IC50: curve of first compound; for viability, T/C: stronger effect = lower value
Method in brief: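 Viability of tumor cells grown as complex spheroids with endothelial and stromal cells, exposed to drug combinations. Top concentration at or near clinical Cmax (else 10 microM), diluted in half-log increments.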

[1] = second compound 0.0316 µM, first compound 0.0316 µM
[2] = second compound 0.0316 µM, first compound 0.1 µM
[3] = second compound 0.0316 µM, first compound 0.316 µM
[4] = second compound 0.0316 µM, first compound 1 µM
[5] = second compound 0.0316 µM, first compound 3.16 µM
[6] = second compound 0.0316 µM, first compound 10 µM
[7] = second compound 0.1 µM, first compound 0.0316 µM
[8] = second compound 0.1 µM, first compound 0.1 µM
[9] = second compound 0.1 µM, first compound 0.316 µM
[10] = second compound 0.1 µM, first compound 1 µM
[11] = second compound 0.1 µM, first compound 3.16 µM
[12] = second compound 0.1 µM, first compound 10 µM
[13] = second compound 0.316 µM, first compound 0.0316 µM
[14] = second compound 0.316 µM, first compound 0.1 µM
[15] = second compound 0.316 µM, first compound 0.316 µM
[16] = second compound 0.316 µM, first compound 1 µM
[17] = second compound 0.316 µM, first compound 3.16 µM
[18] = second compound 0.316 µM, first compound 10 µM
[19] = second compound 1 µM, first compound 0.0316 µM
[20] = second compound 1 µM, first compound 0.1 µM
[21] = second compound 1 µM, first compound 0.316 µM
[22] = second compound 1 µM, first compound 1 µM
[23] = second compound 1 µM, first compound 3.16 µM
[24] = second compound 1 µM, first compound 10 µM
[25] = second compound 3.16 µM, first compound 0.0316 µM
[26] = second compound 3.16 µM, first compound 0.1 µM
[27] = second compound 3.16 µM, first compound 0.316 µM
[28] = second compound 3.16 µM, first compound 1 µM
[29] = second compound 3.16 µM, first compound 3.16 µM
[30] = second compound 3.16 µM, first compound 10 µM
[31] = second compound 10 µM, first compound 0.0316 µM
[32] = second compound 10 µM, first compound 0.1 µM
[33] = second compound 10 µM, first compound 0.316 µM
[34] = second compound 10 µM, first compound 1 µM
[35] = second compound 10 µM, first compound 3.16 µM
[36] = second compound 10 µM, first compound 10 µM
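Further: spheroids exposed to the compounds for one week.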
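Wherever viability, T/C is given: percent of tumor spheroid viability relative to DMSO vehicle control wells.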

SMILES: CC1COCCN1c1cc(C2(S(C)(=N)=O)CC2)nc(-c2ccnc3[nH]ccc23)n1 (stereo unspecified) + CN(C)c1ccc(Nc2c3ccc(NC(=O)CCN4CCCC4)cc3nc3cc(NC(=O)CCN4CCCC4)ccc23)cc1
- IC50 (second compound 0.0316 µM): 0.8 µM
- IC50 (second compound 0.1 µM): 0.795 µM
- IC50 (second compound 0.316 µM): 0.765 µM
- IC50 (second compound 1 µM): 0.729 µM
- IC50 (second compound 3.16 µM): 0.744 µM
- IC50 (second compound 10 µM): < 0.0316 µM
- viability, T/C [1]: 102%
- viability, T/C [2]: 90.4%
- viability, T/C [3]: 93%
- viability, T/C [4]: 39.7%
- viability, T/C [5]: 5.75%
- viability, T/C [6]: 3.04%
- viability, T/C [7]: 104%
- viability, T/C [8]: 92.5%
- viability, T/C [9]: 90.7%
- viability, T/C [10]: 39.9%
- viability, T/C [11]: 6.39%
- viability, T/C [12]: 2.92%
- viability, T/C [13]: 110%
- viability, T/C [14]: 102%
- viability, T/C [15]: 87.1%
- viability, T/C [16]: 39.5%
- viability, T/C [17]: 6.6%
- viability, T/C [18]: 4.64%
- viability, T/C [19]: 97.3%
- viability, T/C [20]: 90.8%
- viability, T/C [21]: 85.1%
- viability, T/C [22]: 36.9%
- viability, T/C [23]: 6.12%
- viability, T/C [24]: 3.44%
- viability, T/C [25]: 96.7%
- viability, T/C [26]: 98.4%
- viability, T/C [27]: 100%
- viability, T/C [28]: 33.3%
- viability, T/C [29]: 6.38%
- viability, T/C [30]: 3.89%
- viability, T/C [31]: 15.1%
- viability, T/C [32]: 20.8%
- viability, T/C [33]: 21.7%
- viability, T/C [34]: 11.7%
- viability, T/C [35]: 7.12%
- viability, T/C [36]: 4.27%

SMILES: COc1ccc([C@@H](O)c2cc(-c3ncnc4cc(N5CCOCC5)ccc34)c(F)cc2Cl)nn1 + CN(C)c1ccc(Nc2c3ccc(NC(=O)CCN4CCCC4)cc3nc3cc(NC(=O)CCN4CCCC4)ccc23)cc1
- IC50 (second compound 0.0316 µM): 9.54 µM
- IC50 (second compound 0.1 µM): > 10 µM
- IC50 (second compound 0.316 µM): > 10 µM
- IC50 (second compound 1 µM): > 10 µM
- IC50 (second compound 3.16 µM): 4.1 µM
- IC50 (second compound 10 µM): < 0.0316 µM
- viability, T/C [1]: 105%
- viability, T/C [2]: 106%
- viability, T/C [3]: 104%
- viability, T/C [4]: 103%
- viability, T/C [5]: 83.8%
- viability, T/C [6]: 48.5%
- viability, T/C [7]: 121%
- viability, T/C [8]: 93.8%
- viability, T/C [9]: 92.1%
- viability, T/C [10]: 92.7%
- viability, T/C [11]: 74.4%
- viability, T/C [12]: 53.6%
- viability, T/C [13]: 104%
- viability, T/C [14]: 98.1%
- viability, T/C [15]: 91%
- viability, T/C [16]: 86.6%
- viability, T/C [17]: 81.6%
- viability, T/C [18]: 50.1%
- viability, T/C [19]: 93.4%
- viability, T/C [20]: 101%
- viability, T/C [21]: 98.5%
- viability, T/C [22]: 88.1%
- viability, T/C [23]: 81.3%
- viability, T/C [24]: 51.9%
- viability, T/C [25]: 94.6%
- viability, T/C [26]: 101%
- viability, T/C [27]: 86%
- viability, T/C [28]: 63%
- viability, T/C [29]: 60.2%
- viability, T/C [30]: 34.9%
- viability, T/C [31]: 13.4%
- viability, T/C [32]: 21.5%
- viability, T/C [33]: 19.6%
- viability, T/C [34]: 14.6%
- viability, T/C [35]: 10.4%
- viability, T/C [36]: 6.55%

SMILES: Cn1ncnc1[C@H]1c2n[nH]c(=O)c3cc(F)cc(c23)N[C@@H]1c1ccc(F)cc1 + CN(C)c1ccc(Nc2c3ccc(NC(=O)CCN4CCCC4)cc3nc3cc(NC(=O)CCN4CCCC4)ccc23)cc1
- IC50 (second compound 0.0316 µM): 0.208 µM
- IC50 (second compound 0.1 µM): > 0.316 µM
- IC50 (second compound 0.316 µM): 0.215 µM
- IC50 (second compound 1 µM): 0.195 µM
- IC50 (second compound 3.16 µM): 0.074 µM
- IC50 (second compound 10 µM): < 0.000999 µM
- viability, T/C (second compound 0.0316 µM, first compound 0.000999 µM): 90%
- viability, T/C (second compound 0.0316 µM, first compound 0.00316 µM): 96.1%
- viability, T/C (second compound 0.0316 µM, first compound 0.00999 µM): 91.3%
- viability, T/C [1]: 90.5%
- viability, T/C (second compound 0.0316 µM, first compound 0.0999 µM): 64.3%
- viability, T/C [3]: 41.9%
- viability, T/C (second compound 0.1 µM, first compound 0.000999 µM): 112%
- viability, T/C (second compound 0.1 µM, first compound 0.00316 µM): 91.8%
- viability, T/C (second compound 0.1 µM, first compound 0.00999 µM): 99.3%
- viability, T/C [7]: 75.9%
- viability, T/C (second compound 0.1 µM, first compound 0.0999 µM): 71.6%
- viability, T/C [9]: 53.9%
- viability, T/C (second compound 0.316 µM, first compound 0.000999 µM): 112%
- viability, T/C (second compound 0.316 µM, first compound 0.00316 µM): 101%
- viability, T/C (second compound 0.316 µM, first compound 0.00999 µM): 94.4%
- viability, T/C [13]: 79.5%
- viability, T/C (second compound 0.316 µM, first compound 0.0999 µM): 61.5%
- viability, T/C [15]: 44%
- viability, T/C (second compound 1 µM, first compound 0.000999 µM): 96.8%
- viability, T/C (second compound 1 µM, first compound 0.00316 µM): 94%
- viability, T/C (second compound 1 µM, first compound 0.00999 µM): 90.4%
- viability, T/C [19]: 81.4%
- viability, T/C (second compound 1 µM, first compound 0.0999 µM): 57.8%
- viability, T/C [21]: 44.2%
- viability, T/C (second compound 3.16 µM, first compound 0.000999 µM): 95.2%
- viability, T/C (second compound 3.16 µM, first compound 0.00316 µM): 96.9%
- viability, T/C (second compound 3.16 µM, first compound 0.00999 µM): 93.8%
- viability, T/C [25]: 64.7%
- viability, T/C (second compound 3.16 µM, first compound 0.0999 µM): 47.8%
- viability, T/C [27]: 36%
- viability, T/C (second compound 10 µM, first compound 0.000999 µM): 18.6%
- viability, T/C (second compound 10 µM, first compound 0.00316 µM): 23%
- viability, T/C (second compound 10 µM, first compound 0.00999 µM): 25%
- viability, T/C [31]: 20.3%
- viability, T/C (second compound 10 µM, first compound 0.0999 µM): 19.1%
- viability, T/C [33]: 15.5%
